The melting point is the temperature, or range, at which the solid turns liquid.

This note sets out measurements from US20020091124A1, “2-acyl indole derivatives and their use as antitumor agents” (priority 2000, published 2002).

Data set [1] concerns human cervical carcinoma cell line KB/HeLa. In words: XTT cytotoxicity test, KB/HeLa. It is filed as cell-based.
The test system of another data set is T1, bovine brain tubulin.
T1 construct: The tubulin used in the assay was isolated from bovine brain using cycles of polymerization and depolymerization
In words: Bovine tubulin polymerization assay. In kind it is biochemical. To be noted: inhibition of tubulin polymerization; read-out: Tubulin-hemmung/ IC50. The protocol: In an in vitro test, selected compounds were tested for inhibition of polymerization of bovine brain. In this test, tubulin purified by cycles of polymerization and depolymerization, polymerization being initiated by addition of GTP and heating, is used.
The tubulin used in the assay was isolated from bovine brain using cycles of polymerization and depolymerization. […] The appropriate amount of test substance, dissolved in 100% DMSO, is pipetted to this mixture. 10 μl of purified bovine tubulin (50-60 μg of tubulin per well) are then added. […] 200 μl/well of decolorizing solution (25 mM NaOH, 50% ethanol, 0.05 mM EDTA) are finally added using a pipette. Following a 20 minute incubation at room temperature on a shaker (400 rpm), the absorption of 600 nm [sic] is measured in a photometer. What is calculated is the inhibition in % based on the 100% value of a positive control (which contains no test substance), and/or, if a concentration/activity curve is plotted, the lC50 value.

A further data set has as its system RKO p21 cells. The data set is described as follows: RKOp21 model, XTT assay. As to conditions: Homo sapiens; Table 2; read-out: RKP p21 induced IC50. It is filed as cell-based. From the text: The model used for examining the cell cycle-specific action was the RKOp21 cell system (M. Schmidt et al. Oncogene19(20):2423-9, 2000). RKO is a human colon carcinoma line in which the cell cycle inhibitor p21^wafl is expressed induced by the ecdysone expression system and leads to an arrest of the cell cycle specifically in G1 and G2. Nonspecific substances inhibit proliferation independently of whether the RKO cell is arrested in G1 or G2 or not. In contrast, cell cycle-specific substances, such as, for example, tubulin inhibitors, are only cytotoxic if the cells are not arrested and the cell cycle is in progress. […] This underlines the arrest of the cell cycle in […] already found in the FACS analyses, and a cell cycle-specific action of the compounds tested.
The assay is carried out in 96-well plates. […] Comparison of the activity on induced and non-induced cells allows conclusions to be drawn about the mechanism of action (cell cycle specificity) of the therapeutics. Non-induced [sic] cells are sown at a cell count which is about four times higher than that of non-induced cells since, compared to non-induced cells, there is no further division during the assay (2×10^4 cells/well induced, about 0.6×10^4 cells/well not induced). The controls are untreated cells (+/− induction). Induction is carried out using 3 μM of muristerone A. On day 1, the cells are plated (+/− muristerone A) and incubated at 37° C. for 24 h. On day 2, the test substance is added (control DMSO) and incubation at 37° C. is continued for another 48 h, after which a standard XTT assay is carried out.

For the next data set, the system named is rat glioma cell line C6. The data set is described as follows: XTT cytotoxicity test, C6. To be noted: 45 h, read-out: IC50 C6. A general note: Tetrazolium assays rely on reduction of a dye to a coloured formazan, in cell work by metabolically active cells.
Data set [2] deals with human glioma cell line U118. In words: XTT cytotoxicity test, U118. To be noted: 45 h, read-out: IC50 U118.
In data set [3] the test system is human glioma cell line U373. The data set is described as follows: XTT cytotoxicity test, U373. As to conditions: U373 MG, 45 h, read-out: IC50 U373.
The subject of data set [4] is human glioma cell line A-172. In words: XTT cytotoxicity test, A-172. To be noted: A 172, 45 h, read-out: IC50 A-172.
For the next data set, the system named is various glioma lines. The data set is described as follows: XTT cytotoxicity test, various glioma lines. It is filed as cell-based. From the text:
The publication by M. Medarde et al. 1998, Eur. J. Med. Chem. Vol. 33, pp. 71-77 describes combretastatin analogs which have antitumor action in a proliferation assay with the tumor cell lines P388 (leukemia, murine), A549 (pulmonary carcinoma, human), HT29 (colon carcinoma, human) and Mel28 (melanoma, human).

The test system of data set [5] is human glioblastoma cell line U373. The data set is described as follows: Cell cycle analysis by FACS. To be noted: U373, treated 24 h, FIG. 2. In general terms: A flow cytometer gives signals particle by particle.
Setting [6] is: read-out: Zytotoxizität KB/HeLa IC50.
The mark [7] stands for this setting: XTT test, 45 h incubation, read-out: IC50 KB/HeLa.

Like-named read-outs stand apart in the source and are kept apart here.

Regarding `O=C(O)c1ccc(C(=O)c2cc3ccccc3[nH]2)cc1` [Example 107, 4-(1H-2-indolylcarbonyl)-1-benzenecarboxylic acid], the melting point is > 220 °C.
In the case of `COc1ccc2[nH]c(C(=O)c3ccc(Br)cc3)cc2c1` [Example D-65499, 5-methoxy-1H-2-indolyl(4-bromophenyl)-1-methanone], the IC50 in data set [1] (setting [6]) is ~0.3 µg/mL; in the data set with bovine brain tubulin, 4300 nM.
In the same order, the values of `COc1ccc2[nH]c(C(=O)c3ccc(Cl)cc3)cc2c1` [Example D-65500, 5-methoxy-1H-2-indolyl(4-chlorophenyl)-1-methanone] are ~1 µg/mL and 4980 nM.
As to `COc1ccc2[nH]c(C(=O)c3ccccc3OC)cc2c1` [Example D-68143, 5-methoxy-1H-2-indolyl(2-methoxyphenyl)-1-methanone], the IC50 in data set [1] (setting [7]) amounted to 35 nM; with bovine brain tubulin, 2120 nM; in the data set with RKO p21 cells, 28 nM; with rat glioma cell line C6, 98 nM; in data set [2], 23 nM; in [3], 29 nM. Further, in data set [4], the IC50 amounted to 73 nM.
In the case of `COc1cccc(C(=O)c2cc3cc(OC)ccc3[nH]2)c1` [Example D-68144, 5-methoxy-1H-2-indolyl(3-methoxyphenyl)-1-methanone], the IC50 in data set [1] (setting [7]) is 6.6 nM; with bovine brain tubulin, 2420 nM; in the data set with RKO p21 cells, 3.6 nM; in the data set on various glioma lines (read-out: inhibitory activity IC50 in various glioma lines), 5 to 15 nM; in the data set on rat glioma cell line C6, 9.6 nM; in data set [2] it was 8.3 nM. Moreover, the IC50 turned out to be 5 nM in [3] and 15 nM in data set [4]. Further, the “factor more active than compound 4d” value with various glioma lines (compared with Medarde et al.) was 40-60. Moreover, the “cells in the metaphase of mitotic division (M-phase)” value in [5] is given as “concentration-dependent arrest of the cells in mitosis”.
With `COc1ccc2[nH]c(C(=O)c3cc(OC)c(OC)c(OC)c3)cc2c1` [Example D-68150, 5-methoxy-1H-2-indolyl(3,4,5-trimethoxyphenyl)-1-methanone], the IC50 in data set [1] (45 h, read-out: IC50 KB/HeLa) is 32 nM; in data set [1] (setting [6]), 32 nM; in the data set with bovine brain tubulin, 10000 nM; in the data set on RKO p21 cells, 16.8 nM; in the data set with rat glioma cell line C6 it was 77 nM; in data set [2], 19.4 nM. Further, the IC50 in data set [3] is 19.7 nM; in data set [4], 18.5 nM. For the same compound, the “cells in the metaphase of mitotic division (M-phase)” value in data set [5] is “concentration-dependent arrest of the cells in mitosis”.
Consider `COc1ccc(C(=O)c2cc3cc(OC)ccc3[nH]2)c(OC)c1` [Example D-68172, 5-methoxy-1H-2-indolyl(2,4-dimethoxyphenyl)-1-methanone], for which the IC50 in data set [1] (setting [7]) is 107 nM; in the data set with bovine brain tubulin it was < 10000 nM; with RKO p21 cells it was 136 nM; in the data set with rat glioma cell line C6, 180 nM; in [2] it was 119 nM; in [3] it was 75 nM. For the same compound, the IC50 in [4] was 330 nM.
Take `COc1ccc2[nH]c(C(=O)c3cccc4ccccc34)cc2c1` [Example D-68213, 5-methoxy-1H-2-indolyl(1-naphthalenyl)-1-methanone]: the IC50 was ~0.1 µg/mL in data set [1] (setting [6]) and 2930 nM with bovine brain tubulin.
For `COc1ccc2[nH]c(C(=O)c3ccc(C)cc3)cc2c1` [Example D-68887, 5-methoxy-1H-2-indolyl(4-methylphenyl)-1-methanone], in that order: ~0.3 µg/mL and 1500 nM.
In the same order, the values of `COc1ccc2[nH]c(C(=O)c3ccccc3F)cc2c1` [Example D-68888, 2-fluorophenyl(5-methoxy-1H-2-indolyl)-1-methanone] are ~0.2 µg/mL and 1030 nM.
In the same order, the values of `COc1ccc2[nH]c(C(=O)c3cccc(C(F)(F)F)c3)cc2c1` [Example D-68901, 5-methoxy-1H-2-indolyl(3-trifluoromethylphenyl)-1-methanone] are ~0.01 µg/mL and 1460 nM.
For the compound `COc1ccc2[nH]c(C(=O)c3cc(C)ccc3C)cc2c1` [Example D-68906, 5-methoxy-1H-2-indolyl(2,5-dimethylphenyl)-1-methanone], the values for the IC50 (in data set [1] (setting [6]); in the data set on bovine brain tubulin) were ~0.2 µg/mL and 5190 nM, respectively.
`COc1ccc2[nH]c(C(=O)c3ccc(Cl)c(Cl)c3)cc2c1` [Example D-70026, 5-methoxy-1H-2-indolyl(3,4-dichlorophenyl)-1-methanone] had a melting point of 190 to 192 °C. Further, the IC50 in [1] (setting [6]) was ~0.1 µg/mL. In the data set on bovine brain tubulin, the IC50 came out at 2490 nM.
Turning to `COc1ccc2[nH]c(C(=O)c3ccccc3C)cc2c1` [Example D-70038, 5-methoxy-1H-2-indolyl(2-methylphenyl)-1-methanone], the results for the IC50 (in data set [1] (setting [6]); with bovine brain tubulin) were ~0.5 µg/mL and 4840 nM, respectively.
For `NCOc1c(C(=O)c2ccccc2N)[nH]c2ccc(O)cc12` [Example D-70046], in that order: ~2 µg/mL and 2440 nM.
For `COc1ccc2[nH]c(C(=O)c3ccccc3N)cc2c1` [Example D-70047, 5-methoxy-1H-2-indolyl(2-aminophenyl)-1-methanone], in that order: ~2 µg/mL and 6680 nM.
In the same order, the values of `COc1ccccc1C(=O)c1cc2cc(C)ccc2[nH]1` [Example D-70289, 5-methyl-1H-2-indolyl(2-methoxyphenyl)-1-methanone] are ~0.1 µg/mL and 3540 nM.
`COc1cc(OC)cc(C(=O)c2cc3cc(C)ccc3[nH]2)c1` [Example D-70316, 5-methyl-1H-2-indolyl(3,5-dimethoxyphenyl)-1-methanone] had a melting point of 141 to 142 °C. In the data set with bovine brain tubulin, the IC50 worked out at 810 nM. In addition, the IC50 in the data set with RKO p21 cells worked out at 17.9 nM.
`COc1ccc2[nH]c(C(=O)c3cccs3)cc2c1` [Example D-70438]: the IC50 with bovine brain tubulin worked out at 2700 nM.
For the compound `COc1ccc2[nH]c(C(=O)c3cccc(N)c3)cc2c1` [Example D-81167, 5-methoxy-1H-2-indolyl(3-aminophenyl)-1-methanone], the IC50 in data set [1] (setting [6]) amounted to 0.089 µg/mL; with bovine brain tubulin, 990 nM.
On to `COc1ccc2[nH]c(C(=O)c3cccc(F)c3)cc2c1` [Example D-81187], for which the figures for the IC50 with bovine brain tubulin and in the data set with RKO p21 cells were 390 nM and 16.8 nM, respectively.
As for `COc1ccc2[nH]c(C(=O)c3cccc(OC(F)(F)F)c3)cc2c1` [Example D-81194], the IC50 in data set [1] (setting [6]) worked out at 0.086 µg/mL; in the data set on bovine brain tubulin it was 1740 nM.
In the same order, the values of `COc1ccc2[nH]c(C(=O)c3cccc(SC(F)F)c3)cc2c1` [Example D-81196] are 0.134 µg/mL and 2050 nM.
For `COc1ccc2[nH]c(C(=O)c3cccc(O)c3)cc2c1` [Example D-81755], in that order: 0.063 µg/mL and 660 nM.
For `COc1ccc2[nH]c(C(=O)c3cccc(OC(=O)CCO)c3)cc2c1` [Example D-81756], in that order: 0.093 µg/mL and 850 nM.
Take `CC(=O)O[C@H]1C(=O)[C@@]2(C)[C@H]([C@H](OC(=O)c3ccccc3)[C@]3(O)C[C@H](OC(=O)[C@H](O)[C@@H](NC(=O)c4ccccc4)c4ccccc4)C(C)=C1C3(C)C)[C@]1(OC(C)=O)CO[C@@H]1C[C@@H]2O` [Taxol, reference compound]: the IC50 in the data set with RKO p21 cells was determined as 0.0078 µg/mL.
For the compound `CC[C@]1(O)C[C@H]2CN(CCc3c([nH]c4ccccc34)[C@@](C(=O)OC)(c3cc4c(cc3OC)N(C=O)[C@H]3[C@@](O)(C(=O)OC)[C@H](OC(C)=O)[C@]5(CC)C=CCN6CC[C@]43[C@@H]65)C2)C1` [Vincristin, Vincristine, reference compound], in the data set on bovine brain tubulin, the IC50 worked out at 90 nM.
